Counter-ions that a name gives are not always drawn.
System: HCT116
Conditions: 72 h
Summary of the method: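 Each well of the 1536-well plates received 250 HCT116 cells, which attached over 5 h. Luminescence was measured with CellTiter-Glo, scaled with vehicle as 0% and positive control as -100%, and pattern-corrected. A four-parameter Hill fit yielded IC50 and maximal efficacy.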

| Compound | IC50 cell viability (ICRF193 0 nM) | IC50 cell viability (ICRF193 200 nM) |
| --- | --- | --- |
| C[C@]12C=CC(=O)C=C1CC[C@@H]1[C@@H]2[C@@H](O)C[C@@]2(C)[C@H]1CC[C@]2(O)C(=O)COC(=O)CCC(=O)O [PREDNISOLONE HEMISUCCINATE] | > 45.8 µM | > 45.8 µM |
| CCCCC(=O)O[C@]1(C(=O)COC(C)=O)CC[C@H]2[C@@H]3CCC4=CC(=O)C=C[C@]4(C)[C@H]3[C@@H](O)C[C@@]21C [PREDNISOLONE VALERATE ACETATE] | > 45.8 µM | > 45.8 µM |
| CCCOc1cc(N)ccc1C(=O)OCCN(CC)CC [PROPOXYCAINE HYDROCHLORIDE] | > 45.8 µM | > 45.8 µM |
| CC(C)OC(=O)[C@H](C)N[P@@](=O)(OC[C@H]1O[C@@H](n2ccc(=O)[nH]c2=O)[C@](C)(F)[C@@H]1O)Oc1ccccc1 [PSI-7976] | > 45.8 µM | > 45.8 µM |
| C=C/C=C\CC1=C(C)[C@@H](OC(=O)[C@@H]2[C@@H](/C=C(\C)C(=O)OC)C2(C)C)CC1=O [PYRETHRIN II] | > 45.8 µM | > 45.8 µM |
| CCCCCCCCCCCCCCCC(=O)OC1CCCn2c1nc(C)c(CCN1CCC(c3noc4cc(F)ccc34)CC1)c2=O (stereo not drawn) [Paliperidone Palmitate] | > 45.8 µM | > 45.8 µM |
| Cc1nc2n(c(=O)c1CCN1CCC(c3noc4cc(F)ccc34)CC1)CCCC2O (stereo not drawn) [Paliperidone] | > 45.8 µM | > 45.8 µM |
| O=C1c2cccc3c2[C@H](CCC3)CN1[C@@H]1CN2CCC1CC2 [Palonosetron hydrochloride] | > 45.8 µM | > 45.8 µM |
| NCCC(O)(P(=O)(O)O)P(=O)(O)O [Pamidronic acid] | > 45.8 µM | > 45.8 µM |
| O=C(O)c1cc2ccccc2c(Cc2c([O-])c(C(=O)O)cc3ccccc23)c1[O-].[Na+].[Na+] [Pamoic acid disodium salt] | > 45.8 µM | > 45.8 µM |
| CC(=O)O[C@H]1C[C@@H]2CC[C@@H]3[C@H](CC[C@@]4(C)[C@H]3C[C@H]([N+]3(C)CCCCC3)[C@@H]4OC(C)=O)[C@@]2(C)C[C@@H]1[N+]1(C)CCCCC1 [Pancuronium bromide] | > 45.8 µM | > 45.8 µM |
| COc1ccnc(C[S+]([O-])c2nc3cc(OC(F)F)ccc3[nH]2)c1OC (stereo not drawn) [Pantoprazole] | > 45.8 µM | > 45.8 µM |
| CC(C)(CO)[C@@H](O)C(=O)NCCC(=O)O [Pantothenic acid] | > 45.8 µM | > 45.8 µM |
| CC(=O)OCC(=O)[C@@]1(O)[C@H](C)C[C@H]2[C@@H]3C[C@H](F)C4=CC(=O)C=C[C@]4(C)[C@H]3[C@@H](O)C[C@@]21C [Paramethasone acetate] | > 45.8 µM | > 45.8 µM |
| CCC(=O)NS(=O)(=O)c1ccc(-c2c(-c3ccccc3)noc2C)cc1 [Parecoxib] | > 45.8 µM | > 45.8 µM |
| CCOc1ccc(C(=O)OCCN(CC)CC)cc1 [Parethoxycaine] | > 45.8 µM | > 45.8 µM |
| C#CCN(C)Cc1ccccc1 [Pargyline hydrochloride] | > 45.8 µM | > 45.8 µM |
| C[C@H](/C=C/[C@H](C)C(C)(C)O)[C@H]1CC[C@H]2/C(=C/C=C3C[C@@H](O)C[C@H](O)C3)CCC[C@]12C [Paricalcitol-D6] | > 45.8 µM | > 45.8 µM |
| Fc1ccc([C@@H]2CCNC[C@H]2COc2ccc3c(c2)OCO3)cc1 [Paroxetine] | > 45.8 µM | > 45.8 µM |
| CCC(=O)c1ccc(O)cc1 [Paroxypropione] | > 45.8 µM | > 45.8 µM |

| Compound | IC50 cell viability (ICRF193 0 nM) | IC50 cell viability (ICRF193 200 nM) |
| --- | --- | --- |
| NCCCC[C@@H]1NC(=O)[C@@H](Cc2c[nH]c3ccccc23)NC(=O)[C@H](c2ccccc2)NC(=O)[C@@H]2C[C@@H](OC(=O)NCCN)CN2C(=O)[C@H](Cc2ccccc2)NC(=O)[C@H](Cc2ccc(OCc3ccccc3)cc2)NC1=O [Pasireotide (ditrifluoroacetate)] | > 45.8 µM | > 45.8 µM |
| C[C@H]1COc2c(C3(N)CC3)c(F)cc3c(=O)c(C(=O)O)cn1c23 [Pazufloxacin] | > 45.8 µM | > 45.8 µM |
| CC(C(=O)O)c1ccc(/C=C2\CCCCC2=O)cc1 (stereo not drawn) [Pelubiprofen] | > 45.8 µM | > 45.8 µM |
| Nc1nc2[nH]cc(CCc3ccc(C(=O)N[C@@H](CCC(=O)O)C(=O)O)cc3)c2c(=O)[nH]1 [Pemetrexed disodium heptahydrate] | > 45.8 µM | > 45.8 µM |
| Cc1cccn2c(=O)c(-c3nnn[nH]3)cnc12 [Pemirolast potassium] | > 45.8 µM | > 45.8 µM |
| Nc1nc(O)c2ncn(CCC(CO)CO)c2n1 [Penciclovir] | > 45.8 µM | > 45.8 µM |
| CCCCCC1Nc2cc(C(F)(F)F)c(S(N)(=O)=O)cc2S(=O)(=O)N1 (stereo not drawn) [Penflutizide] | > 45.8 µM | > 45.8 µM |
| CC1(C)S[C@@H]2[C@H](NC(=O)Cc3ccccc3)C(=O)N2[C@H]1C(=O)O [Penicillin G Sodium] | > 45.8 µM | > 45.8 µM |
| CCCCC[C@@H](O)[C@H]1C(=O)O[C@H](C)[C@@H](O)/C=C/C=C/C=C/C=C/C=C(\C)[C@@H](O)[C@H](O)[C@H](O)C[C@H](O)C[C@H](O)C[C@H](O)C[C@H](O)C[C@@H]1O [Pentamycin] | > 45.8 µM | > 45.8 µM |
| O=C(O)CN(CCN(CC(=O)O)CC(=O)O)CCN(CC(=O)O)CC(=O)O [Pentetic acid] | > 45.8 µM | > 45.8 µM |
| CN[C@@H]1[C@@H](O)[C@@H](O[C@@H]2[C@H](O)[C@H](O[C@H]3OC(CN)=CC[C@H]3N)[C@@H](N)C[C@H]2N)OC[C@]1(C)O [Pentisomicin] | > 45.8 µM | > 45.8 µM |
| C[N+]1(CCCCC[N+]2(C)CCCC2)CCCC1 [Pentolinium bitartrate] | > 45.8 µM | > 45.8 µM |
| OC[C@H]1O[C@@H](n2cnc3c2N=CNC[C@H]3O)C[C@@H]1O [Pentostatin] | > 45.8 µM | > 45.8 µM |
| CC(=O)CCCCn1c(=O)c2c(ncn2C)n(C)c1=O [Pentoxifylline] | > 45.8 µM | > 45.8 µM |
| Cc1c(N)nc([C@H](CC(N)=O)NC[C@H](N)C(N)=O)nc1C(=O)N[C@H](C(=O)N[C@H](C)[C@@H](O)[C@H](C)C(=O)N[C@H](C(=O)NCCc1nc(-c2nc(C(=O)NCCCN[C@@H](C)c3ccccc3)cs2)cs1)[C@@H](C)O)[C@@H](O[C@@H]1O[C@@H](CO)[C@@H](O)[C@H](O)[C@@H]1O[C@H]1O[C@H](CO)[C@@H](O)[C@H](OC(N)=O)[C@@H]1O)c1c[nH]cn1 [Peplomycin sulfate] | > 45.8 µM | > 45.8 µM |
| CCC(CC)[C@H](NC(C)=O)[C@@H]1[C@H](O)[C@@H](C(=O)O)C[C@H]1NC(=N)N [Peramivir] | > 45.8 µM | > 45.8 µM |
| FC(F)(F)C(F)(F)C(F)(F)C(F)(F)C(F)(F)F [Perflenapent] | > 45.8 µM | > 45.8 µM |
| FC(F)(F)C(F)(F)C(F)(F)C(F)(F)C(F)(F)C(F)(F)F [Perflexane] | > 45.8 µM | > 45.8 µM |
| CCCN1C[C@H](CSC)C[C@@H]2c3cccc4[nH]cc(c34)C[C@H]21 [Pergolide methanesulfonate] | > 45.8 µM | > 45.8 µM |

— the supplement of paper PMC12137928
